Series [1] in a line: Average crystalline domain size and crystallinity by X-ray diffraction. The class given is physicochemical. The conditions noted are these: comparative particles as received or wet-milled (Table B). The method, then: As used herein the term “essentially crystalline” is defined to mean that the particles are at least 90% crystalline as measured using X-ray diffraction techniques.
0.3 g of the drug was dissolved in 6 ml of the organic solvent, which may contain 0.3 g of a stabilizer. The organic solution was injected at 2 degrees C. with vigorous stirring into 30.0 g of the aqueous phase, which may contain a second stabilizer. The solvent was stripped from the resulting slurry, and the slurry freeze dried to yield a powder. […] Average size of the crystalline domains was determined using X-ray diffraction as known by those skilled in the art of particle size measurement, using Jade XRD pattern processing software (v.6).
(§1) Dissolution was monitored for 5 minutes by the loss in turbidity.

Series [2] is described as follows: Dissolution by turbidity method (loss in turbidity). The class given is physicochemical. Particulars: loss in turbidity monitored for 5 minutes. The procedure: as §1, §1

Turning to `COc1ccc2cc([C@H](C)C(=O)O)ccc2c1` [compound 22, Naproxen], the “Crystalline Domain” value in series [1] is 646 Å.
With `C#C[C@]1(O)CC[C@H]2[C@@H]3CCC4=Cc5oncc5C[C@]4(C)[C@H]3CC[C@@]21C` [compound 24, Danazol/USP 24], in series [2] (Danazol samples: deionized water plus sodium dodecyl sulfate), the “Percent of Dissolution after 5 min.” value is 91%. In series [1], the “Crystalline Domain” value was found to be 404 Å.
As to `NC(=O)N1c2ccccc2C=Cc2ccccc21` [compound 23, Carbamazepine], the “Percent of Dissolution after 5 min.” value in series [2] (Carbamazepine sample: deionized water) amounted to 100%. Besides, in series [1], the “Crystalline Domain” value is given as 475 Å.

For the origin of these results see patent publication US20040028746A1, “Crystalline drug particles prepared using a controlled precipitation (recrystallization) process” (priority 2002, published 2004).
